Assay results reported in BindingDB's records for doi:10.1021/jm00163a034 (Eisai, 1990).
Square brackets hold non-standard residues; d marks the D form. Peptide text beside a SMILES is read from it. Phe(4-NO2) = N[CH](Cc1ccc([N+](=O)[O-])cc1)C(=O)O; NMeY = CN[CH](Cc1ccc(O)cc1)C(=O)O; Sar = CNCC(=O)O

How the values were obtained:
[1] = Binding affinities against Opioid receptor kappa 1 of guinea pig brain membrane using [3H]U69,593 as the radioligand using competition binding assays.
[2] = Binding affinities against Opioid receptor delta 1 of guinea pig brain membrane using [3H]DPDPE as the radioligand using competition binding assays.
[3] = Evaluated for inhibitory activity against Opioid receptor kappa 1 of rabbit vas deferens (RVD)

Row | SMILES | Ki [1] | Ki [2] | IC50 [3]
1 | CCNC(=O)[C@@H](CC(C)C)NC(=O)[C@H](CCCNC(=N)N)N(C)C(=O)[C@H](CCCNC(=N)N)NC(=O)[C@H](CC(C)C)NC(=O)[C@H](Cc1ccccc1)NC(=O)CNC(=O)CNC(=O)[C@H](Cc1ccc(O)cc1)NC [2-[2-(2-{2-[3-(4-Hydroxy-phenyl)-2-methylamino-propionylamino]-acetylamino}-acetylamino)-3-phenyl-propionylamino]-4-methyl-pentanoic acid (1-{[1-(1-ethylcarbamoyl-3-methyl-butylcarbamoyl)-4-guanidino-butyl]-methyl-carbamoyl}-4-guanidino-butyl)-amide] | 1.9 nM | 27 nM | 2.6 nM
2 | CCNC(=O)[C@@H](CC(C)C)NC(=O)[C@H](CCCN=C(N)N)N(C)C(=O)[C@H](CCCN=C(N)N)NC(=O)[C@@H]1CSSC[C@@H](NC(=O)[C@@H](N)Cc2ccc(O)cc2)C(=O)NCC(=O)N[C@@H](Cc2ccccc2)C(=O)N1 [13-[2-Amino-3-(4-hydroxy-phenyl)-propionylamino]-7-benzyl-6,9,12-trioxo-1,2-dithia-5,8,11-triaza-cyclotetradecane-4-carboxylic acid (1-{[1-(1-ethylcarbamoyl-3-methyl-butylcarbamoyl)-4-guanidino-butyl]-methyl-carbamoyl}-4-guanidino-butyl)-amide] | 3 nM | 1.6 nM | –
3 | CC(C)C[C@H](NC(=O)[C@H](CCCNC(=N)N)NC(=O)[C@H](CCCNC(=N)N)NC(=O)[C@H](CC(C)C)NC(=O)[C@H](Cc1ccccc1)NC(=O)CNC(=O)CN(C)C(=O)[C@@H](N)Cc1ccc(O)cc1)C(N)=O [2-{2-[2-(2-{2-[2-(2-{[2-Amino-3-(4-hydroxy-phenyl)-propionyl]-methyl-amino}-acetylamino)-acetylamino]-3-phenyl-propionylamino}-4-methyl-pentanoylamino)-5-guanidino-pentanoylamino]-5-guanidino-pentanoylamino}-4-methyl-pentanoic acid amide] (H-Y[Sar]GFLRRL-NH2) | – | – | 738 nM
4 | CC[C@H](C)[C@H](NC(=O)[C@H](CCCNC(=N)N)NC(=O)[C@H](CCCNC(=N)N)NC(=O)[C@H](CC(C)C)NC(=O)[C@H](Cc1ccccc1)NC(=O)CNC(=O)CNC(=O)[C@@H](N)Cc1ccc(O)cc1)C(N)=O [2-[2-(2-{2-[2-(2-{2-[2-Amino-3-(4-hydroxy-phenyl)-propionylamino]-acetylamino}-acetylamino)-3-phenyl-propionylamino]-4-methyl-pentanoylamino}-5-guanidino-pentanoylamino)-5-guanidino-pentanoylamino]-3-methyl-pentanoic acid amide] | 1.2 nM | 24 nM | 17 nM
5 | CCNC(=O)[C@@H](CC(C)C)NC(=O)[C@H](CCCN=C(N)N)N(C)C(=O)[C@H](CCCN=C(N)N)NC(=O)[C@H](CC(C)C)NC(=O)[C@H](Cc1ccc([N+](=O)[O-])cc1)NC(=O)CNC(=O)CNC(=O)[C@H](Cc1ccc(O)cc1)NC [2-{5-Guanidino-2-[(5-guanidino-2-{2-[2-(2-{2-[3-(4-hydroxy-phenyl)-2-methylamino-propionylamino]-acetylamino}-acetylamino)-3-(4-nitro-phenyl)-propionylamino]-4-methyl-pentanoylamino}-pentanoyl)-methyl-amino]-pentanoylamino}-4-methyl-pentanoic acidN-ethyl amide] | 3.9 nM | 18 nM | –
6 | CN[C@@H](Cc1ccc(O)cc1)C(=O)NCC(=O)NNC(=O)N[C@@H](Cc1ccccc1)C(=O)N[C@@H](CC(C)C)C(=O)N[C@@H](CCCNC(=N)N)C(=O)N[C@@H](CCCNC(=N)N)C(=O)N[C@H](CC(C)C)C(N)=O | – | – | 152 nM
7 | CN[C@@H](Cc1ccc(O)cc1)C(=O)NCC(=O)NCC(=O)N[C@@H](Cc1ccccc1)C(=O)N(C)[C@@H](CC(C)C)C(=O)N[C@@H](CCCNC(=N)N)C(=O)N[C@@H](CCCNC(=N)N)C(=O)N[C@H](CC(C)C)C(N)=O [2-{5-Guanidino-2-[5-guanidino-2-(2-{[2-(2-{2-[3-(4-hydroxy-phenyl)-2-methylamino-propionylamino]-acetylamino}-acetylamino)-3-phenyl-propionyl]-methyl-amino}-4-methyl-pentanoylamino)-pentanoylamino]-pentanoylamino}-4-methyl-pentanoic acid amide] | – | – | 189 nM
8 | CN[C@@H](Cc1ccc(O)cc1)C(=O)NCC(=O)NCC(=O)N[C@@H](Cc1ccccc1)C(=O)N[C@@H](CC(C)C)C(=O)N[C@@H](CCCNC(=N)N)C(=O)N(C)[C@@H](CCCNC(=N)N)C(=O)N[C@H](CC(C)C)C(N)=O [2-{5-Guanidino-2-[(5-guanidino-2-{2-[2-(2-{2-[3-(4-hydroxy-phenyl)-2-methylamino-propionylamino]-acetylamino}-acetylamino)-3-phenyl-propionylamino]-4-methyl-pentanoylamino}-pentanoyl)-methyl-amino]-pentanoylamino}-4-methyl-pentanoic acid amide] | 1.4 nM | 54 nM | –
9 | CN[C@@H](Cc1ccc(O)cc1)C(=O)NCC(=O)NCC(=O)N[C@@H](Cc1ccccc1)C(=O)N[C@H](C)C(=O)N[C@@H](CCCNC(=N)N)C(=O)N[C@@H](CCCNC(=N)N)C(=O)N[C@H](CC(C)C)C(N)=O [2-[5-Guanidino-2-(5-guanidino-2-{2-[2-(2-{2-[3-(4-hydroxy-phenyl)-2-methylamino-propionylamino]-acetylamino}-acetylamino)-3-phenyl-propionylamino]-propionylamino}-pentanoylamino)-pentanoylamino]-4-methyl-pentanoic acid amide] | – | – | 13000 nM
10 | CN[C@@H](Cc1ccc(O)cc1)C(=O)NCC(=O)NCC(=O)N[C@@H](Cc1ccccc1)C(=O)N[C@@H](CC(C)C)C(=O)N(C)[C@@H](CCCN=C(N)N)C(=O)N[C@@H](CCCN=C(N)N)C(=O)N[C@H](CC(C)C)C(N)=O [2-{5-Guanidino-2-[5-guanidino-2-({2-[2-(2-{2-[3-(4-hydroxy-phenyl)-2-methylamino-propionylamino]-acetylamino}-acetylamino)-3-phenyl-propionylamino]-4-methyl-pentanoyl}-methyl-amino)-pentanoylamino]-pentanoylamino}-4-methyl-pentanoic acid amide] | – | – | 1.1 nM
11 | CNC(Cc1ccc(O)cc1)C(=O)NCC(=O)NCC(=O)NC(Cc1ccc([N+](=O)[O-])cc1)C(=O)NC(CC(C)C)C(=O)NC(CCCNC(=N)N)C(=O)NC(CCCNC(=N)N)C(=O)NC(CC(C)C)C(N)=O (centres undefined) [2-[5-Guanidino-2-(5-guanidino-2-{2-[2-(2-{2-[3-(4-hydroxy-phenyl)-2-methylamino-propionylamino]-acetylamino}-acetylamino)-3-(4-nitro-phenyl)-propionylamino]-4-methyl-pentanoylamino}-pentanoylamino)-pentanoylamino]-4-methyl-pentanoic acid amide] (H-[NMeY]GG[Phe(4-NO2)]LRRL-NH2; configuration not given here) | 0.77 nM | 29 nM | –
